Read-outs that look alike come from different tables or passages of the source.
Tests used:
BxPC-3 = assay: Inhibition of tumor cell proliferation, CellTiter-Glo, BxPC-3; type: cell-based; conditions: compound concentration 50 μM, 72 hours; for cell survival rate (%) at 50 µM: Homo sapiens, BXPC-3, read-out: Inhibitory activity against proliferation (cell survival rate) BxPC-3
Outline: (§1)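 Compound tested at 50 μM for 72 h, read by CellTiter-Glo. Survival rate = (treated−blank)/(control−blank) RLU ×100, binned as +++ ≤30%, ++ >30-≤60%, + 60-<90%. Seeding 2000-10000 cells/well depending on growth rate.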

LC3B = LC3B (Homo sapiens (Human), UniProt Q9GZQ8); assay: Fluorescence polarization experiment targeting LC3B (GST-LC3B with FITC-labeled peptide)
SU-DHL6 = assay: Inhibition of tumor cell proliferation, CellTiter-Glo, SU-DHL6; type: cell-based; conditions: compound concentration 50 μM, 72 hours; for cell survival rate (% of control) at 50 µM: Homo sapiens, SU-DHL-6, read-out: Inhibitory activity against proliferation (cell survival rate) SU-DHL6
Outline: as §1

RPMI-8226 = assay: Inhibition of tumor cell proliferation, CellTiter-Glo, RPMI-8226; type: cell-based; conditions: compound concentration 50 μM, 72 hours; for cell survival rate (% of control) at 50 µM: Homo sapiens, RPMI-8226, read-out: Inhibitory activity against proliferation (cell survival rate) RPMI-8226
Outline: as §1

MDA-MB-453 = assay: Inhibition of tumor cell proliferation, CellTiter-Glo, MDA-MB-453; type: cell-based; conditions: compound concentration 50 μM, 72 hours; for cell survival rate (%) at 50 µM: Homo sapiens, MDA-MB-453, read-out: Inhibitory activity against proliferation (cell survival rate) MDA-MB-453
Outline: as §1

K562 = assay: Inhibition of tumor cell proliferation, CellTiter-Glo, K562; type: cell-based; conditions: compound concentration 50 μM, 72 hours; for cell survival rate (%) at 50 µM: Homo sapiens, K562, read-out: Inhibitory activity against proliferation (cell survival rate) K562
Outline: as §1

A549 = assay: Inhibition of tumor cell proliferation, CellTiter-Glo, A549; type: cell-based; conditions: compound concentration 50 μM, 72 hours; for cell survival rate (% of control) at 50 µM: Homo sapiens, A549, read-out: Inhibitory activity against proliferation (cell survival rate) A549
Outline: as §1

[1] = GST-LC3B 180 nM, FITC-labeled peptide 18 nM, 25° C.

SMILES	Inhibitory activity against proliferation (cell survival rate) BxPC-3 (BxPC-3)	IC50 (LC3B; [1])	Inhibitory activity against proliferation (cell survival rate) SU-DHL6 (SU-DHL6)	Inhibitory activity against proliferation (cell survival rate) RPMI-8226 (RPMI-8226)	Inhibitory activity against proliferation (cell survival rate) MDA-MB-453 (MDA-MB-453)	Inhibitory activity against proliferation (cell survival rate) K562 (K562)	Inhibitory activity against proliferation (cell survival rate) A549 (A549)	cell survival rate (%) at 50 µM (BxPC-3)	IC50 (LC3B)	cell survival rate (% of control) at 50 µM (SU-DHL6)	cell survival rate (% of control) at 50 µM (RPMI-8226)	cell survival rate (%) at 50 µM (MDA-MB-453)	cell survival rate (%) at 50 µM (K562)	cell survival rate (% of control) at 50 µM (A549)
O=C1CCC(N2Cc3c(NC(=O)COCCNC=C4C(=O)CC(c5ccccc5)CC4=O)cccc3C2=O)C(=O)N1 (stereo not drawn) [Compound 48]	+ (60≤survival rate (%)<90)	100 to 1000 µM	+++ (survival rate (%)≤30)	+++ (survival rate (%)≤30)	+++ (survival rate (%)≤30)	+++ (survival rate (%)≤30)	+++ (survival rate (%)≤30)	–	–	–	–	–	–	–
O=C1CCC(N2Cc3c(NC(=O)c4ccc(NC=C5C(=O)CC(c6ccccc6)CC5=O)cc4)cccc3C2=O)C(=O)N1 (stereo not drawn) [Compound 50]	+ (60≤survival rate (%)<90)	15 to 100 µM	+++ (survival rate (%)≤30)	++ (30<survival rate (%)≤60)	+ (60≤survival rate (%)<90)	+ (60≤survival rate (%)<90)	+ (60≤survival rate (%)<90)	–	–	–	–	–	–	–
CC(C)[C@H](NC=C1C(=O)CC(c2ccccc2)CC1=O)C(=O)N[C@@H](CCCNC(N)=O)C(=O)Nc1cccc2c1CN(C1CCC(=O)NC1=O)C2=O (stereo partly drawn) [Compound 59]	++ (30<survival rate (%)≤60)	100 to 1000 µM	+++ (survival rate (%)≤30)	+++ (survival rate (%)≤30)	+ (60≤survival rate (%)<90)	+++ (survival rate (%)≤30)	+++ (survival rate (%)≤30)	–	–	–	–	–	–	–
O=C1CCC(N2Cc3c(NC(=C4C(=O)CC(c5ccccc5)CC4=O)c4ccccc4)cccc3C2=O)C(=O)N1 (stereo not drawn) [Compound 75]	+ (60≤survival rate (%)<90)	100 to 1000 µM	+++ (survival rate (%)≤30)	+++ (survival rate (%)≤30)	+++ (survival rate (%)≤30)	+++ (survival rate (%)≤30)	+++ (survival rate (%)≤30)	–	–	–	–	–	–	–
CC(C)[C@H](NC(=O)CCC(=O)OCCN1CCN(CCNC=C2C(=O)CC(c3ccccc3)CC2=O)CC1)C(=O)N[C@@H](CCCNC(N)=O)C(=O)Nc1ccc(COC(=O)Nc2cccc3c2CN(C2CCC(=O)NC2=O)C3=O)cc1 (stereo partly drawn) [Compound 89]	+ (60≤survival rate (%)<90)	15 to 100 µM	++ (30<survival rate (%)≤60)	++ (30<survival rate (%)≤60)	+++ (survival rate (%)≤30)	++ (30<survival rate (%)≤60)	++ (30<survival rate (%)≤60)	–	–	–	–	–	–	–
CC(C)[C@H](NC(=O)CN1CCN(CCNC=C2C(=O)CC(c3ccccc3)CC2=O)CC1)C(=O)N[C@@H](CCCNC(N)=O)C(=O)Nc1ccc(COC(=O)Nc2cccc3c2CN(C2CCC(=O)NC2=O)C3=O)cc1 (stereo partly drawn) [Compound 90]	++ (30<survival rate (%)≤60)	15 to 100 µM	+++ (survival rate (%)≤30)	++ (30<survival rate (%)≤60)	++ (30<survival rate (%)≤60)	+++ (survival rate (%)≤30)	++ (30<survival rate (%)≤60)	–	–	–	–	–	–	–
O=C1CC(c2ccccc2)CC(=O)C1=CNCCN1CCN(C(=O)N2C(=O)CCC(N3C(=O)c4ccccc4C3=O)C2=O)CC1 (stereo not drawn) [Compound 101]	+ (60≤survival rate (%)<90)	15 to 100 µM	++ (30<survival rate (%)≤60)	+++ (survival rate (%)≤30)	++ (30<survival rate (%)≤60)	+++ (survival rate (%)≤30)	+++ (survival rate (%)≤30)	–	–	–	–	–	–	–
CCCNC(=O)C1CC(=O)C(=CNc2cccc3c2CN(C2CCC(=O)NC2=O)C3=O)C(=O)C1 (stereo not drawn) [Compound 114]	–	–	–	–	–	–	–	60 to 90%	100 to 1000 µM	30 to 60%	60 to 90%	60 to 90%	30 to 60%	30 to 60%
CCC(=O)/C(=C/Nc1cccc2c1CN(C1CCC(=O)NC1=O)C2=O)C(=O)CCc1ccccc1 (stereo not drawn) [Compound 128]	+ (60≤survival rate (%)<90)	100 to 1000 µM	+++ (survival rate (%)≤30)	+++ (survival rate (%)≤30)	+++ (survival rate (%)≤30)	+++ (survival rate (%)≤30)	+++ (survival rate (%)≤30)	–	–	–	–	–	–	–
O=C1CCC(N2Cc3c(NC=C4C(=O)CCCC4=O)cccc3C2=O)C(=O)N1 (stereo not drawn) [Compound 132]	–	–	–	–	–	–	–	30 to 60%	100 to 1000 µM	≤ 30%	≤ 30%	60 to 90%	30 to 60%	60 to 90%
O=C1CCC(N2Cc3c(NC=C4C(=O)CC(c5cc(C(F)(F)F)ccc5F)CC4=O)cccc3C2=O)C(=O)N1 (stereo not drawn) [Compound 140]	++ (30<survival rate (%)≤60)	< 3 µM	+++ (survival rate (%)≤30)	+++ (survival rate (%)≤30)	++ (30<survival rate (%)≤60)	+++ (survival rate (%)≤30)	+++ (survival rate (%)≤30)	–	–	–	–	–	–	–
O=C1CCC(N2Cc3c(NC=C4C(=O)CC(c5c(C(F)(F)F)ccc(Cl)c5Cl)CC4=O)cccc3C2=O)C(=O)N1 (stereo not drawn) [Compound 141]	+ (60≤survival rate (%)<90)	< 3 µM	+++ (survival rate (%)≤30)	++ (30<survival rate (%)≤60)	+++ (survival rate (%)≤30)	++ (30<survival rate (%)≤60)	+++ (survival rate (%)≤30)	–	–	–	–	–	–	–

Source: US11021457B2, “Class of isoindolone-imide ring-1,3-dione-2-ene compounds, composition and use thereof” (WIGEN BIOMEDICINE TECHNOLOGY (SHANGHAI) CO., LTD., priority 2017, dated 2021)
